Experimental data: patent publication US9073863B2, “Cyanoquinoline compounds having activity in correcting mutant-CFTR processing and increasing ion transport and uses thereof” (The Regents of the University of California, priority 2011, dated 2015)

Experiments:
Format in all cases: cell-based
ΔF508-CFTR [1] = biological target: T1, ΔF508-CFTR (Homo sapiens, UniProt P13569, DEL508-508); assay: CFTR immunoblot of ΔF508-CFTR expressing FRT cells; settings: 24 h at 37° C.
T1 construct: expressed in transfected cells; host or cells: Fischer rat thyroid (FRT) epithelial cells, stably transfected
T1 sequence (P13569 with tags, fused parts or gaps DEL508-508): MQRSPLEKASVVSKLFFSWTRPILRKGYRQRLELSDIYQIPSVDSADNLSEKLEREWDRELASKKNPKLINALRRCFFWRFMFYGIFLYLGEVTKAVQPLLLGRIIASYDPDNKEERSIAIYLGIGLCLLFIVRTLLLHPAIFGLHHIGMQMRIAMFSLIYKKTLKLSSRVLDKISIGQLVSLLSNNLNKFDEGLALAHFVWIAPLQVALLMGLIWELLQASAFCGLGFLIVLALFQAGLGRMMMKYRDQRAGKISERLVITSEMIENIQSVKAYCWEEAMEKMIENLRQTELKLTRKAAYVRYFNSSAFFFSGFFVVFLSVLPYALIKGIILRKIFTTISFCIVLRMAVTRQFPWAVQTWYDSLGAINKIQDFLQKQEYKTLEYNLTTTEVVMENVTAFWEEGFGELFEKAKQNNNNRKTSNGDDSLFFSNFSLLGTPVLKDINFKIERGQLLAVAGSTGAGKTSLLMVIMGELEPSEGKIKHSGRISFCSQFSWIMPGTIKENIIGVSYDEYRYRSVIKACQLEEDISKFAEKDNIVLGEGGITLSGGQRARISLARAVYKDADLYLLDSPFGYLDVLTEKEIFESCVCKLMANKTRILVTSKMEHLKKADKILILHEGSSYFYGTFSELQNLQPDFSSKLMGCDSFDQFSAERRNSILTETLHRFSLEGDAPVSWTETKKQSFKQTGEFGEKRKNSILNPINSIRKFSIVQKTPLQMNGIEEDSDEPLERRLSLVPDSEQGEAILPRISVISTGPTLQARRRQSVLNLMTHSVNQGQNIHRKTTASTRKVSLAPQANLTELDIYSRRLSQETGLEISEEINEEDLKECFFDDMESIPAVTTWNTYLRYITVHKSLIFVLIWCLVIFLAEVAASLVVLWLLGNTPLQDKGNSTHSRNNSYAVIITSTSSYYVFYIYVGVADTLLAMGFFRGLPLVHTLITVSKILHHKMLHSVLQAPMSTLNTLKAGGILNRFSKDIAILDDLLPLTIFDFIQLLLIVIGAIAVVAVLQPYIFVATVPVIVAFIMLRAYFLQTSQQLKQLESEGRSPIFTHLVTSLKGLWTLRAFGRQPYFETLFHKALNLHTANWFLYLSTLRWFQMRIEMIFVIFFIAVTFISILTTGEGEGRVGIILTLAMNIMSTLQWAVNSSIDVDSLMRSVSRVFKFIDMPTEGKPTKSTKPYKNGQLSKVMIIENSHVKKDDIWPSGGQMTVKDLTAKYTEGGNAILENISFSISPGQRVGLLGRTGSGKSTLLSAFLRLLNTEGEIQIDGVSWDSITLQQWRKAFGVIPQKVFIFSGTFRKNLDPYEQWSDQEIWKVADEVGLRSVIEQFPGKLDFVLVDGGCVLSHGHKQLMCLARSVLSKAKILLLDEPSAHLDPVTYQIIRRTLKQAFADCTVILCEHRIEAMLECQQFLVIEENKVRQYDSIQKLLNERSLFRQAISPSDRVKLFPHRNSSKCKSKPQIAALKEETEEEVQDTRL
Experimental: CFTR Immunoblot. DF508-CFTR expressing FRT cells grown on 6-well plates were treated with Corr-4a ([…]), Compound 22 […] or negative control at 37° C. for 24 h. After treatment, cells were washed with PBS and lysed in 20 mM Hepes (pH 7), 150 mM NaCl, 1 mM EGTA and 1% Igepal containing Complete Protease Inhibitor Cocktail (Roche). After pre-clearing, lysates were subjected to SDS-PAGE and analyzed by immunoblot. Proteins were immunodetected using a mouse monoclonal anti-CFTR antibody (M3A7, Millipore) followed by HRP-conjugated anti-mouse IgG, and visualized by chemiluminescence (ECL Plus, Amersham).
The action of Compound 22 as corrector of defective ΔF508-CFTR cellular processing was verified by CFTR immunoblot analysis (FIG. 4C). Wildtype CFTR was detected as a strong band at 170 kDa (band C), corresponding to complex glycosylated CFTR. […] Band B, which corresponds to core-glycosylated ΔF508-CFTR, was also seen.

ΔF508-CFTR [2] = biological target: T1, ΔF508-CFTR; assay: Potentiator assay by YFP/iodide fluorescence quenching in ΔF508-CFTR expressing A549 cells
Experimental: Representative fluorescence quenching curves (FIG. 6B (top)) shown with deduced Compound 22 and genistein concentration dependence (FIG. 6B (bottom), SEM, n=4). Fluorescence plate reader assays in FIG. 6B confirmed that Compound 22 activated G551D-CFTR in the presence of forskolin, with lower maximal efficacy than genistein.
(§1) To test whether Compound 22 is active in a different cell background, potentiator and corrector assays were performed in ΔF508-CFTR transfected A549 cells, which are of human lung epithelial origin. […] Apparent EC50 for Compound 22 potentiator activity was about 8 μM (FIG. 6B). […] (FIG. 6C, top). Compound 22 was further tested for corrector activity in A549 cells under the low-temperature synergy condition; however, DF508-CFTR was fully activated by forskolin ([…]) and genistein ([…]) in this cell model (FIG. 6C, bottom).

ΔF508-CFTR [3] = biological target: T1, ΔF508-CFTR; assay: Corrector assay by YFP/iodide fluorescence quenching in ΔF508-CFTR expressing A549 cells; settings: 24 h at 37° C.
Experimental: FIGS. 6A and 6B show graphs of Compound 22 activity in G551D-CFTR expressing FRT cells and DF508-CFTR expressing […] cells, according to embodiments of the present disclosure. […] (top) or 27° C. (bottom) for 24 h prior to iodide influx measurement, according to embodiments of the present disclosure. Graphs are representative of 3 sets of measurements.
as §1

G551D-CFTR = biological target: T2, G551D-CFTR (Homo sapiens, UniProt P13569, G551D); assay: Short-circuit current in FRT cells expressing G551D-CFTR; settings: in the presence of forskolin, vs genistein
T2 construct: expressed in transfected cells; host or cells: Fischer rat thyroid (FRT) epithelial cells, stably transfected
T2 sequence (P13569 whole entry G551D): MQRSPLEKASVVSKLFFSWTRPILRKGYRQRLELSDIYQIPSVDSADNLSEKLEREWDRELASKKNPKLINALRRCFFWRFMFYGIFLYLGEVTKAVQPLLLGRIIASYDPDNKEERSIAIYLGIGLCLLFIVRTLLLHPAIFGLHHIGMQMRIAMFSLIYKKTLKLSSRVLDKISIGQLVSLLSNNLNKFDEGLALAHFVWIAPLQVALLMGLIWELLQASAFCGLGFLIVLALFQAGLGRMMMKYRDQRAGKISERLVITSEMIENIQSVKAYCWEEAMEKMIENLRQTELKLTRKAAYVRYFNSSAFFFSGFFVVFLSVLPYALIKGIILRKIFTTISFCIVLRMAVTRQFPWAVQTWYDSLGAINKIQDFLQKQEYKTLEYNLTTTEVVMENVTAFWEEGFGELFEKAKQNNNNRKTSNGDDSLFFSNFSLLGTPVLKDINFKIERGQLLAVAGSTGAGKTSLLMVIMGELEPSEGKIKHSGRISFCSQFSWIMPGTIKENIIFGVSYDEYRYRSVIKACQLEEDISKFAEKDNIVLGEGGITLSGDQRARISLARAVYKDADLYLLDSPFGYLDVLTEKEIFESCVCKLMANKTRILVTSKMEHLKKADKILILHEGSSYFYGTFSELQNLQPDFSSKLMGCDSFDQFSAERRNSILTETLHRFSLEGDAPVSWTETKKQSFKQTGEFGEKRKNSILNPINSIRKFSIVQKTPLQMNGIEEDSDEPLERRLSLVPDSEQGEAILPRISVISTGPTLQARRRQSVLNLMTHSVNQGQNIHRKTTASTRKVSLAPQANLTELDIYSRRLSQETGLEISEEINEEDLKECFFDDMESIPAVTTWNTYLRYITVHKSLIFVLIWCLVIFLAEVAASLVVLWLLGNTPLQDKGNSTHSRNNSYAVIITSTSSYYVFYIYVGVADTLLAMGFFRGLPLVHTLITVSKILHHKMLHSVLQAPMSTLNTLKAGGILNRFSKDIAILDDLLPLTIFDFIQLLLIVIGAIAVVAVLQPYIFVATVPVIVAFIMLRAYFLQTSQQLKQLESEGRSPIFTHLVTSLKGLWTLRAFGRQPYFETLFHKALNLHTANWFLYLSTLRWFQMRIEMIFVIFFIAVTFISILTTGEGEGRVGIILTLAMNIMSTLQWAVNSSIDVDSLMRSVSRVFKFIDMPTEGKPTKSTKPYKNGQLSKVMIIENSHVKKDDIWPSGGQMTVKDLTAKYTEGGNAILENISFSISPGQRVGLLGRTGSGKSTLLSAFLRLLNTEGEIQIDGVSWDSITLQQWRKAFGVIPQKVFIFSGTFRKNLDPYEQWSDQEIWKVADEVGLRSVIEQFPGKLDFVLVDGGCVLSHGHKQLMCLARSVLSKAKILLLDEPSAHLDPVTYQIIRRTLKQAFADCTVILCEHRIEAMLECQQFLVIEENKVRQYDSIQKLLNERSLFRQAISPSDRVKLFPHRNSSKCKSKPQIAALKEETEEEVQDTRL
Experimental: Potentiator studies were also performed in FRT cells expressing G551D-CFTR, a CF-causing CFTR mutation with defective channel gating but not plasma membrane trafficking. […] Where indicated, genistein (100 μM) and CFTRinh-172 (10 μM) were added. Graphs are representative of 3 sets of measurements. […] Measurements were made in the presence of 20 μM forskolin.

Which results are given for `COc1cccc(C(=O)NCCNc2nc3cc(C)cc(C)c3cc2C#N)c1` [Compound 22, N-(2-((3-Cyano-5,7-dimethylquinolin-2-yl)amino)ethyl)-3-methoxybenzamide]?
complex glycosylated CFTR (band C) in immunoblot (ΔF508-CFTR [1]): band C was visualized; potentiator activity in A549 cells, in words (ΔF508-CFTR [2]): comparable to that in FRT cells; EC50 (ΔF508-CFTR [2]; A549 cells, read-out: Apparent EC50 for potentiator activity): ~8 µM; corrector activity in A549 cells, in words (ΔF508-CFTR [3]): little corrector activity compared to Corr-4a; potentiator action on G551D-CFTR chloride current (G551D-CFTR): weak potentiator
